Data from patent US9951046B2, “TRPA1 modulators” (Algomedix, Inc., priority 2014, dated 2018).

What follows are compounds tested against T1, human TRPA1 (Homo sapiens, UniProt O75762) (assay: Cell-based functional intracellular calcium ([Ca2+]i) assay, Fluo-4/Fluo-8, FlexStation, challenge with reference TRPA1 agonist (FFA, AITC or 4-HNE)). Settings: not given.
T1 construct: expressed in transfected cells
T1 sequence (O75762 whole entry): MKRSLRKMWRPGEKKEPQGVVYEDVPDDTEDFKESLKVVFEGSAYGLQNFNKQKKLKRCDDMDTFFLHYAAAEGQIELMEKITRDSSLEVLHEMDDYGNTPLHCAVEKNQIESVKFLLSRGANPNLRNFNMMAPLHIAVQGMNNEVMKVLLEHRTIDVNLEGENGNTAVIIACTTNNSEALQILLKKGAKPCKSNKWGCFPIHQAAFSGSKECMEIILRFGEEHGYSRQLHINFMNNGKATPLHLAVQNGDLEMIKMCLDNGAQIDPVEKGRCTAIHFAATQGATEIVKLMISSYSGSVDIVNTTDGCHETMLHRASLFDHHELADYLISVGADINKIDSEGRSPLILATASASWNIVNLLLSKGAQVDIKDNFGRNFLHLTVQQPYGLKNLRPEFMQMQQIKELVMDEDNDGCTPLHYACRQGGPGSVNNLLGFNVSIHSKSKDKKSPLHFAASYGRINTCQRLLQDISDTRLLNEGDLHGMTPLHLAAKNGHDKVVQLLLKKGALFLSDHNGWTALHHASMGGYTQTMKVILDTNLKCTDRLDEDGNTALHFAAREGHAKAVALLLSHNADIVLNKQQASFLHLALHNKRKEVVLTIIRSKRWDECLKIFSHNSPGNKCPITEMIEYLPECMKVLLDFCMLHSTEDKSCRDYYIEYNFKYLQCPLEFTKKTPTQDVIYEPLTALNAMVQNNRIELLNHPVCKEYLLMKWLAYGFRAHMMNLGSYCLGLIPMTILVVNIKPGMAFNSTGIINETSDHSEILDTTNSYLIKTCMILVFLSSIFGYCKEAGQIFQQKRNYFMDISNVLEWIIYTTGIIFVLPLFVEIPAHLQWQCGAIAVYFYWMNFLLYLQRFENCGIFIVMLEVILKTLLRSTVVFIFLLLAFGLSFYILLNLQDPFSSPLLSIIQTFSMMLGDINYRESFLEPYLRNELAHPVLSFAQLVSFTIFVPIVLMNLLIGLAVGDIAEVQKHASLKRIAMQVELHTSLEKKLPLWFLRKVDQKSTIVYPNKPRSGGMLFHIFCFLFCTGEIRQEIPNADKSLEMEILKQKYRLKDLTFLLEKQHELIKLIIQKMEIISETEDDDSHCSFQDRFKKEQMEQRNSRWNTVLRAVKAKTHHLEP
Description: A stable HEK293 cell line that expresses human TRPA1 in an inducible manner was employed in this assay. […] The expression of TRPA1 was induced by including 1 μg/ml doxycycline in the culture medium. For the induced cells, ruthenium red (5 μM) was also added to minimize the constitutive TRPA1 channel activity and cells were used 14-18 hrs after induction. To measure [Ca^2+]i changes, cells were seeded in wells of 96-well plates at ˜100,000 cells/well and grown for 14-18 hrs to reach confluency. To prevent cell loss from subsequent washing, the wells were treated with 20 μg/ml polyornithine (MW>30,000, Sigma, St Louis, Mo.) for >15 min and rinsed once with Hank's balanced salt solution without Mg^2+ and Ca^2+. […] In some experiments, Fluo-8-AM was used instead of Fluo-4-AM as the calcium-sensitive fluorescent probe. Probenecid (2 mM) was included in all solutions to prevent the leakage of Fluo-4 or Fluo-8 from the cells. At the end of the incubation, cells were washed three times with ECS and placed in 80 μL of the same solution. Fluorescence changes were measured using a fluid handling integrated fluorescence plate reader, FlexStation (Molecular Devices, Sunnyvale, Calif.). Stock solutions of test compounds were initially solubilized in 100% DMSO and then serially diluted to achieve the desired final concentration. […] Drugs were diluted into ECS at 2× or 3× the desired final concentrations and delivered to the sample plate by an integrated robotic 8-channel pipettor at preprogrammed time points. […] Experiments were performed at 20-25° C. For certain experiments, 0.1% BSA was included with the cells and test compounds.
The kinetic data obtained at each test concentration of drug represents a series of fluorescent intensities as a function of time.
Using a sequential addition protocol, test compounds were initially applied to the cells loaded with Fluo-4 or Fluo-8 and fluorescence changes in each well monitored for 2.5 min. The plate was read again in a kinetic mode after a 15-30 min incubation with the test compounds after obtaining baseline values (about 30 s) and subsequent addition of challenge with a reference TRPA1 agonist. Reference TRPA1 agonists in testing each compound included at least one of flufenamic acid (FFA), allyl isothiocyanate (AITC) and 4-hydroxynonenal (4-HNE).
Antagonist activity can be expressed in terms of IC50 with respect to TRPA1 and agonist activity can be expressed in terms of EC50 with respect to TRPA1.
With `O=C(c1cc(-c2ccncc2)n(-c2cc(F)c(F)c(F)c2)n1)N1CCC2(CC1)OCCO2` [Compound 142] the IC50 was over 25 µM. `O=C(c1cc(-c2cccnc2)n(-c2ccc(C(F)(F)F)c(F)c2)n1)N1CCC2(CC1)C(=O)NC(=O)N2c1ccc(F)cc1` [Compound 185] showed an IC50 of 5 to 25 µM. In the case of `O=C(c1cc(-c2ccncc2)n(-c2cc(C(F)(F)F)cc(C(F)(F)F)c2)n1)N1CCC2(CC1)OCCO2` [Compound 160], the IC50 is reported as over 25 µM. `O=C(c1cc(-c2ccncc2)n(-c2cccc(C(F)(F)F)c2)n1)N1CCC2(CC1)OCCO2` [Compound 148] gave an IC50 of over 25 µM. `O=C(c1cc(-c2ccncc2)n(-c2ccc(C(F)(F)F)c(F)c2)n1)N1CCC2(CC1)OCCO2` [Compound 163] was tested, and the IC50 was 5 to 25 µM. `O=C(c1cc(-c2cccnc2)n(-c2ccc(F)c(C(F)(F)F)c2)n1)N1C2CCC1CC(n1c(=O)[nH]c3ccc(F)c(F)c31)C2` (stereo not drawn) [Compound 331] showed an IC50 of 0.001 to 5 µM. With `CCCC1COC2(CCN(C(=O)c3cc(-c4ccncc4)n(-c4ccc(C(F)(F)F)c(F)c4)n3)CC2)O1` (stereo not drawn) [Compound 117] the IC50 was over 25 µM.

Same assay, conditions: HEK293 cells expressing human TRPA1; IC50 class after addition of reference TRPA1 agonist (FFA, AITC or 4-HNE); read-out: human TRPA1-HEK Activity
In the case of `O=C(c1cc(-c2cncc(F)c2)n(-c2ccc(C(F)(F)F)c(F)c2)n1)N1CCC2(CC1)C(=O)NCN2c1ccc(F)cc1` [Compound 318], the IC50 is reported as 0.001 to 5 µM. Work on `O=C(c1cc(-c2ccncc2)n(-c2ccc(F)c(F)c2)n1)N1CC(=O)N2CCc3ccccc3C2C1` (stereo not drawn) [Compound 82] yielded an IC50 of over 25 µM. With `O=C(c1cc(-c2ccncc2)n(-c2ccc(C(F)(F)F)c(F)c2)n1)N1CCN2C(=O)OC[C@@H]2C1` [Compound 115] the IC50 was over 25 µM. `O=C(c1nn(-c2cc(F)c(F)c(F)c2)c(-c2cccnc2)c1Br)N1CCC2(CC1)C(=O)NCN2c1ccc(F)cc1` [Compound 210] showed an IC50 of 0.001 to 5 µM. Work on `O=C(c1cc(-c2ccncc2)n(-c2ccc3c(c2)OCO3)n1)N1CCC2(CC1)C(=O)NCN2c1ccccc1` [Compound 155] yielded an IC50 of over 25 µM. Work on `CC1CC(n2c(=O)[nH]c3ccccc32)CCN1C(=O)c1cc(-c2cccnc2)n(-c2ccc(C(F)(F)F)c(F)c2)n1` (stereo not drawn) [Compound 261] yielded an IC50 of 0.001 to 5 µM. `N#Cc1c(F)ccc2[nH]c(=O)n(C3CCN(C(=O)c4cc(-c5cccnc5)n(-c5ccc(C(F)(F)F)c(F)c5)n4)CC3)c12` [Compound 244] was tested, and the IC50 was 5 to 25 µM. In the case of `O=C(c1cc(-c2ccncc2)n(-c2cnccn2)n1)N1CCC(n2c(=O)[nH]c3ccccc32)CC1` [Compound 168], the IC50 is reported as 5 to 25 µM. In the case of `O=C(c1cc(-c2cccnc2)n(-c2ccc(C(F)(F)F)c(F)c2)n1)N1CCC2(CC1)C(=O)NCN2c1ccc(F)c(C(F)(F)F)c1` [Compound 187], the IC50 is reported as 0.001 to 5 µM. `Cn1c(=O)c(=O)n(C)c2cc(NC(=O)c3cc(-c4ccncc4)n(-c4ccc(C(F)(F)F)cc4)n3)ccc21` [Compound 69] was tested, and the IC50 was over 25 µM. `Cc1c(C(=O)N2CCC3(CC2)C(=O)NCN3c2ccc(F)cc2)nn(-c2ccc(C(F)(F)F)c(F)c2)c1-c1cccnc1` [Compound 265] showed an IC50 of 0.001 to 5 µM. `N#Cc1ccc(-n2nc(C(=O)N3CCC(n4c(=O)[nH]c5ccc(F)c(F)c54)CC3)cc2-c2cccnc2)c(C(F)(F)F)c1` [Compound 325] showed an IC50 of 0.001 to 5 µM. `O=C(c1cc(-c2cccnc2)n(-c2ccc(C(F)(F)F)cc2Cl)n1)N1CCC2(CC1)C(=O)NCN2c1ccc(F)c(F)c1` [Compound 218] gave an IC50 of 0.001 to 5 µM. Compound `Cn1c(=O)n(C2CCN(C(=O)c3cc(-c4ccncc4)n(-c4ccc(C(F)(F)F)nc4)n3)CC2)c2ccccc21` [Compound 126] has an IC50 of over 25 µM. For `CN1C(=O)NC2(CCN(C(=O)c3cc(-c4ccncc4)n(-c4ccc(C(F)(F)F)c(F)c4)n3)CC2)C1=O` [Compound 118], the IC50 was over 25 µM. In the case of `O=C(c1cc(-c2ccncc2)n(-c2ccccc2)n1)N1CCC2(CCCO2)CC1` [Compound 12], the IC50 is reported as over 25 µM. `O=C(c1cc(-c2cccnc2)n(-c2cc(F)c(F)c(F)c2)n1)N1CCC(n2c(=O)[nH]c3cccnc32)CC1` [Compound 208] showed an IC50 of 0.001 to 5 µM. With `O=C1Nc2ncccc2C2(CCN(C(=O)c3cc(-c4cccnc4)n(-c4ccc(F)c(C(F)(F)F)c4)n3)CC2)O1` [Compound 281] the IC50 was 0.001 to 5 µM. Work on `N#Cc1ccc(-n2nc(C(=O)N3CCC4(CC3)C(=O)NCN4c3ccc(F)cc3)cc2-c2cccnc2)c(C(F)(F)F)c1` [Compound 324] yielded an IC50 of 0.001 to 5 µM. With `O=C1Nc2cc(F)c(F)cc2C2(CCN(C(=O)c3cc(-c4cccnc4)n(-c4ccc(F)c(C(F)(F)F)c4)n3)CC2)O1` [Compound 273] the IC50 was 0.001 to 5 µM. For `Cn1c(=O)n(C2CCN(C(=O)c3cc(-c4ccncc4)n(-c4ccc(C(F)(F)F)c(F)c4)n3)CC2)c2ccccc21` [Compound 105], the IC50 was over 25 µM. Work on `N#Cc1ccc(-n2nc(C(=O)N3CCC4(CC3)C(=O)NCN4c3ccc(F)c(F)c3)cc2-c2cccnc2)cc1F` [Compound 216] yielded an IC50 of 0.001 to 5 µM. In the case of `O=C(c1cc(-c2ccncc2)n(-c2cccc(C(F)(F)F)c2)n1)N1CCC2(CC1)C(=O)NCN2c1ccccc1` [Compound 146], the IC50 is reported as 5 to 25 µM. `N#Cc1ccc2[nH]c(=O)n(C3CCN(C(=O)c4cc(-c5cccnc5)n(-c5ccc(F)c(C(F)(F)F)c5)n4)CC3)c2c1` [Compound 240] gave an IC50 of 0.001 to 5 µM. With `O=C(c1cc(-c2cccnc2)n(-c2cc(F)c(F)c(F)c2)n1)N1CCC2(CC1)C(=O)NCN2c1ccc(F)c(F)c1` [Compound 254] the IC50 was 0.001 to 5 µM. `N#Cc1ccc2c(c1)[nH]c(=O)n2C1CCN(C(=O)c2cc(-c3cccnc3)n(-c3cc(F)c(F)c(F)c3)n2)CC1` [Compound 229] was tested, and the IC50 was 0.001 to 5 µM. Compound `O=C(c1cc(-c2ccncc2)n(-c2cnccn2)n1)N1CCN2C(=O)OC[C@@H]2C1` [Compound 136] has an IC50 of 5 to 25 µM. `O=C(Nc1ccc2c(c1)COC2=O)c1cc(-c2ccncc2)n(-c2ccc(C(F)(F)F)c(F)c2)n1` [Compound 113] showed an IC50 of over 25 µM. For `CN1C(=O)NC2(CCN(C(=O)c3cc(-c4ccncc4)n(-c4ccccc4)n3)CC2)C1=O` [Compound 174], the IC50 was over 25 µM. Compound `O=C(c1cc(-c2ccncc2)n(-c2ccc(C(F)(F)F)c(F)c2)n1)N1CCC2(CC1)OCc1ccccc12` [Compound 101] has an IC50 of over 25 µM. For `O=C(Nc1ccc2c(c1)OC(F)(F)O2)c1cc(-c2ccncc2)n(-c2ccc(C(F)(F)F)cc2)n1` [Compound 66], the IC50 was over 25 µM. `CN1C(=O)NC2(CCN(C(=O)c3cc(-c4ccncc4)n(-c4cnccn4)n3)CC2)C1=O` [Compound 139] showed an IC50 of over 25 µM. For `O=C(Nc1ccc2c(c1)OC(F)(F)O2)c1cc(-c2ccncc2)n(-c2ccc(C(F)(F)F)c(F)c2)n1` [Compound 109], the IC50 was over 25 µM. With `O=C(c1cc(-c2cccnc2)n(-c2ccc(C(F)(F)F)cc2)n1)N1CCC2(CC1)C(=O)NCN2c1ccc(F)cc1` [Compound 49] the IC50 was 0.001 to 5 µM. `Cc1cc(OC(F)(F)F)ccc1-n1nc(C(=O)N2CCC(n3c(=O)[nH]c4ccc(F)c(F)c43)CC2)cc1-c1cccnc1` [Compound 227] gave an IC50 of 0.001 to 5 µM. In the case of `O=C(c1cc(-c2ccncc2)n(-c2cc(C(F)(F)F)cc(C(F)(F)F)c2)n1)N1CCC2(CC1)C(=O)NCN2c1ccccc1` [Compound 158], the IC50 is reported as 5 to 25 µM. `O=C(c1cc(-c2cccnc2)n(-c2ccc(F)c(C(F)(F)F)c2)n1)N1CCC(n2c(=S)[nH]c3ccc(F)c(F)c32)CC1` [Compound 291] showed an IC50 of 0.001 to 5 µM. `O=C(c1cc(-c2ccncc2)n(-c2ccc(C(F)(F)F)cc2)n1)N1CCC2(CC1)C(=O)NCN2c1ccc(F)cc1` [Compound 55] was tested, and the IC50 was 0.001 to 5 µM. `Cc1cc(N2CNC(=O)C23CCN(C(=O)c2cc(-c4cccnc4)n(-c4cc(F)c(F)c(F)c4)n2)CC3)cc(C)c1F` [Compound 204] showed an IC50 of 0.001 to 5 µM. `O=C(c1cc(-c2cccnc2)n(-c2ccc(F)c(C(F)(F)F)c2)n1)N1CCC(N2Cc3ccc(F)cc3NC2=O)CC1` [Compound 290] showed an IC50 of 0.001 to 5 µM. `O=C(c1cc(-c2ccncc2)n(-c2ccc(C(F)(F)F)c(F)c2)n1)N1CCC(N2C(=O)OC[C@H]2c2ccccc2)CC1` [Compound 106] showed an IC50 of over 25 µM. In the case of `O=C(c1cc(-c2ccccn2)n(-c2ccc(C(F)(F)F)c(F)c2)n1)N1CCC2(CC1)C(=O)NCN2c1ccc(F)cc1` [Compound 264], the IC50 is reported as 5 to 25 µM. Compound `CN1C(=O)c2ccc(NC(=O)c3cc(-c4ccncc4)n(-c4ccccc4)n3)cc2C1=O` [Compound 40] has an IC50 of over 25 µM. For `O=C(c1cc(-c2cccnc2)n(-c2ccc(F)c(C(F)(F)F)c2)n1)N1CCC(n2c(=O)[nH]c3ccc(F)c(F)c32)CC1` [Compound 241], the IC50 was 0.001 to 5 µM. `O=C(c1nn(-c2ccc(F)c(C(F)(F)F)c2)c2c1CCc1cccnc1-2)N1CCC2(CC1)C(=O)NCN2c1ccc(F)cc1` [Compound 315] gave an IC50 of 0.001 to 5 µM. In the case of `Cn1c(=O)c(=O)n(C)c2cc(NC(=O)c3cc(-c4ccncc4)n(-c4ccc(C(F)(F)F)c(F)c4)n3)ccc21` [Compound 112], the IC50 is reported as over 25 µM. For `O=C(c1cc(-c2cccnc2)n(-c2ccc(I)cc2)n1)N1CCC(n2c(=O)[nH]c3ccc(F)c(F)c32)CC1` [Compound 237], the IC50 was 0.001 to 5 µM.
